# What was measured:
# [1] = Solubility of hydrazones in buffer; type: physicochemical
# Experimental: (§1) The MRI contrast produced by CEST probes is dependent upon voxel-wise concentration, however previous investigations have reported non-linear concentration relationships for CEST contrast agents. In order to evaluate this dependence for Hydrazo-CEST compounds, Z-spectra were acquired for acetaldehyde (4b-4f) and 2-formylbenzenesulfonic acid-derived hydrazones (3b-3f) on a 300 MHz NMR from 5 mM to 40 mM, or the maximum solubility of the compound in neutral buffer. The dynamic range for Hydrazo-CEST signal production from each compound was then plotted using the maximum signal for each compound (6.4±0.4 ppm). Within the series of acetaldehyde-derived hydrazones, the 5-methoxy- (4f) and 5-hydroxy-substituted (4e) analogs had the broadest dynamic range for imaging signal, with the 5-methoxy-derivative showing the higher absolute % MTRasym and the most linear concentration-dependent signal production (R^2=0.98).
# In addition to local probe concentrations, micro-environmental pH can modify CEST signal production, as pH directly impacts ksw. The effect of pH on % MTRasym was evaluated for the unsubstituted, 5-hydroxy-, and 5-methoxy-substituted hydrazones derived from acetaldehyde (4a, 4e, 4f) and 2-formylbenzenesulfonic acid (3a, 3e, 3f). […] The hydroxy- and methoxy-substituted aryl-hydrazones (3e, 3f) gave better CEST signal production from pH 6.5-8.0, but both were insoluble at 40 mM at pH 6.0. The differential pH responses associated with the Hydrazo-CEST probes studied are justified by the higher predicted electron density around the ring-proximal nitrogen of the aliphatic versus aromatic hydrazones, which would favor the protonated form of the hydrazo moiety at higher pH values.
# [2] = Trapping of MDA by N-amino anthranilic acid probe, monitored by 1H-NMR and fluorimetry; details: incubation of NA^3 acid probe and MDA, 1H-NMR
# Experimental: N-amino anthranilic acids can act as specific sensors for malondialdehyde. N-amino anthranilic acid reacts rapidly with MDA to form a fluorescent pyrazole. A proposed 2-step reaction scheme for the formation of the MDA-derived pyrazole (5) from 5-methoxy-N-amino anthranilic acid (3) is shown:
# The formation of the MDA-derived pyrazole ring was monitored by ^1H-NMR. Hydrazone (4) formation happens within less than 1 min of incubation of the NA^3 acid probe and MDA. The pyrazole product (5) forms rapidly as well, and reaches completion within 20 min. The fluorescence ‘turn-on’ of the N-amino anthranilic acid probe is specific for MDA.
# [3] = Z-spectra / CEST signal production (% MTRasym) on 300 MHz NMR; details: for CEST-MRI signal generation (in words): Z-spectra, 37° C., pH 7.4, 40 mM; for CEST signal production: hydrazone with o-sulfobenzaldehyde, Z-spectrum (FIG. 19)
# Experimental: FIG. 27 provides Z-spectra of compounds 8b, 10a, 12, and 11 for Panels A to D, respectively. […] The absence of the hydrazone proton through the formation of a pyrazole also completely abolishes CEST-MRI signal (Panel D). Raw data points (S/So are shown as black circles), exchangeable proton and water Lorentzian curves, and CEST-MRI signal production MTRasym (%), are also shown. All Z-spectra are obtained at 37° C. and pH 7.4 with 40 mM compound solutions in 10:1 PBS:D2O unless otherwise indicated.
# Electron donating (OH, OCH3) and electron-withdrawing (I, SO3, NO2) substituents were appended at the 5-position of N-amino anthranilic acid (compounds 2b-2f), both acetaldehyde (4b-4f) or 2-formylbenzenesulfonic acid-derived hydrazones (3b-3f) were prepared, and Z-spectra were acquired in 1:10 D2O:PBS at pH 7.4 on a 300 MHz NMR.
# In this way, per molar signal output could be compared across hydrazone series to examine electronic contributions to Hydrazo-CEST.
# as §1
# Z-spectra were acquired on a 300 MHz NMR in 10:1 PBS:D2O at 37° C., pH 7.4, at 40 mM, or the indicated concentration providing maximum solubility. Hydrazones were formed between 2f and (Panel A) 3-aminopropanal, (Panel B) crotonaldehyde, (Panel C) glyceraldehyde, and (Panel D) pyruvate.
# [4] = Hydrazone product stability (spectrophotometric, HPLC); type: physicochemical; details: 1×PBS, 37° C.
# Experimental: (§2) The hydrazone peak is shown (r.t.=17.5 min for MeONA^3 and 17.2 min for MeOPH) at the time points indicated, showing a loss of the MeOPH-derived hydrazone but stability of the MeONA^3-derived product over time. All reactions were performed in 1×PBS at 37° C., and points represent mean±s.d. for n=3 trials
# The carboxylic acid ortho to the hydrazine is critical to the stability of the formed hydrazone product. All reactions were performed in 1×PBS at 37° C., and points represent mean±s.d. for n=3 trials.
# (§3) Hydrazone stability was assayed both spectrophotometrically (FIG. 13, Panel A), as well as by HPLC (FIG. 13, Panel B). […] Since the signal produced by Hydrazo-CEST depends on the hydrazone form of the probe, the faster-forming and longer-lived the hydrazone product under physiological conditions, the better the imaging signal evolved and the more potentially sensitive the imaging technique.
# [5] = Hydrazone formation kinetics and reaction completion in 1×PBS at 37° C.; details: for kobs: pseudo-first order, carbonyl o-sulfobenzaldehyde
# Experimental: as §2
# FIG. 13, discussed above, illustrates that the o-carboxylic acid contributes to substantial reaction completion as well as extended stability of the product hydrazone under physiological conditions. […] The hydrazone peak is shown (r.t.=17.5 min for 2f and 17.2 min for MeOPH) at the time points indicated. All reactions were performed in 1×PBS at 37° C., and points represent mean±s.d. for n=3 trials.
# (§4) Repeating the methodology, however at 37° C. in 100% 1×PBS, determined the kobs for the reaction of 5-methoxy N-amino anthranilic acid (2f) and related analogs with 2-formylbenzenesulfonic acid (FIG. 13) and acetone.
# as §3
# [6] = Time-lapse imaging of acetaldehyde-derived hydrazone formation in PBS; details: room temperature
# Text: N-Amino anthranilic esters can be fast-reacting aldehyde sensors. N-amino anthranilate methyl ester reacts rapidly with endogenous reactive aldehydes. The reaction of 5-methoxy-N-amino anthranilate methyl ester (1) with a reactive aldehyde results in the formation of […] in PBS at room temperature is shown: […]
# [7] = tested on: hippocampal CA3 neurodegeneration; details: TMT rat model, Wood et al. (2006); cited from earlier work
# [8] = Hydrazone formation with glucose under physiological conditions (interference test); details: 37° C., 1 PBS, pH=7.4, within 4 h of incubation
# [9] = Preliminary in vitro toxicity assays
# [10] = Hydrazo-CEST MRI phantom imaging (3 T and 7 T) and in situ hydrazone formation
# Experimental: In the upper panel, a Phantom image and Z-spectra of hydrazine 2f and hydrazones 3f and 4f were acquired at the indicated field strength, 37° C., pH 7.4, and 40 mM concentration.
# Values indicate the % MTRasym±the standard deviation of the off-resonance measurements once the system had reached steady state.
# The kinetics of Hydrazo-CEST signal production through hydrazone formation were also evaluated in the MRI at 37° C. in 1×PBS at pH=7.4 (FIG. 28). Either PBS or a PBS solution of 2-formylbenzenesulfonic acid at a final concentration of 20 mM was injected into the imaging phantom, and Z-spectra were acquired every 4.5 min to monitor hydrazone formation.
# A single saturation peak at 6.4 ppm was observed 4.5 min after aldehyde injection. […] This MRI data confirms that Hydrazo-CEST probes are rapidly activated by aldehydes under physiological conditions, and are readily detectable by 7 T MRI. Both hydrazine and hydrazone functionalities are utilized in medications broadly spanning indications from anti-infectives and anti-parasitics, to anti-cancer agents.
# [11] = Hydrazone formation kinetics and reaction completion in 1×PBS at 37° C.
# Experimental: as §4, §3
# [12] = Hydrazone formation kinetics under pseudo-first order conditions in 1×PBS at 37° C.; details: carbonyl acetaldehyde
# Experimental: The carboxylic acid ortho to the hydrazine is critical to the stability of the formed hydrazone product. All reactions were performed in 1×PBS at 37° C., and points represent mean±s.d. for n=3 trials. […]
# [13] = reaction with butanal, 1:10 DMF:PBS solution; cited from earlier work
structure (smiles),measurement,setting,value
CC=NNc1ccccc1C(=O)O [Compound 4a],solubility,[1]; neutral buffer,limited solubility beyond 20 mM
same,solubility,[1]; pH 6.0-8.0,completely soluble
COc1ccc(-n2cccn2)c(C(=O)O)c1 [Compound 5],time to completion of pyrazole product formation,[2],≤ 20 min
same,CEST-MRI signal generation (in words),[3],Complete abolishment of signal production
COc1ccc(NN=Cc2ccccc2S(=O)(=O)O)c(C(=O)O)c1 [Compound 3f],stability of hydrazone product,[4],long-term stability
same,solubility,"[1]; 40 mM, pH 6.0",insoluble
"COC(=O)c1cc(OC)ccc1NN [Compound 7, 5-methoxy-N-amino anthranilate methyl ester, reference compound]",kobs,[5],0.0008 ± 5.5e-05 min⁻¹
same,time to hydrazone formation after aldehyde addition,[6],≤ 1 s
ONCc1ccccc1 [N-benzylhydroxylamine],protection against neurodegeneration,[7],provided protection against neurodegeneration
C/C=N/Nc1ccc(OC)cc1C(=O)O [Compound 4f],solubility,"[1]; 40 mM, pH 6.5",not soluble
same,MTRasym,[3]; 5 mM,9%
same,CEST-MRI signal generation (in words),[3],substantial signal
O=C(O)c1ccccc1NN=Cc1ccccc1S(=O)(=O)O [Compound 3a],CEST signal production,[3],~5%
O=C(O)c1cccnc1N/N=C/c1ccccc1S(=O)(=O)O [Compound 319],CEST signal production,[3],~25%
COc1ccc(N/N=C/C(O)CO)c(C(=O)O)c1 (stereo not shown) [Compound 5c],CEST-MRI signal generation (in words),[3],limited signal production
"O=C(O)c1cccc(O)c1 [Compound 12, 3-Hydroxybenzoic acid, reference compound]",CEST-MRI signal generation (in words),[3],nearly completely abolishes signal production
"COc1ccc(NN)c(C(=O)O)c1 [Compound 2f, 5-methoxy N-amino anthranilic acid]",hydrazone formation with D-glucose,[8],no hydrazone formation
same,kobs,[5],0.112 ± 0.03 min⁻¹
same,reaction completion (hydrazone formation),[5]; within 30 min of initiation,~90%
same,in vitro toxicity,[9],initial safety
same,maximum plateau % MTRasym,"[10]; 40 mM hydrazine plus 20 mM 2-formylbenzenesulfonic acid, 37° C., 1×PBS, pH 7.4",4.6±0.7 % MTRasym
same,CEST contrast in MRI (in words),"[10]; 37° C., pH 7.4, 40 mM",produced no CEST contrast
same,Hydrazo-CEST signal as share of maximal signal,[10]; within the first 4.5 min after aldehyde injection,> 50%
same,kobs,"[11]; pseudo-first order, 37° C., carbonyl acetone",0.017 ± 0.0004 min⁻¹
same,product formation,"[11]; reaction with acetone, 37° C. (data not shown)",< 25%
same,kobs,[12],0.012 ± 0.001 min⁻¹
same,CEST-MRI signal generation (in words),[3],little CEST-MRI signal
"C/C=N/Nc1ccc(OC)cc1C(=O)OC [Compound 8b, reference compound]",CEST-MRI signal generation (in words),[3],complete loss of the CEST effect
same,CEST-MRI signal generation (in words),[3]; listed as compound 302,prevents any CEST-MRI signal generation
"COc1ccc(NN)cc1.Cl.Cl [Compound 9, 4-methoxyphenyl hydrazine dihydrochloride, reference compound]",kobs,[5],0.119 ± 0.02 min⁻¹
"NNc1ccccc1C(=O)O [Compound 101, N-amino anthranilic acid]",pseudo-first-order rate constant (kobs),[13],1.5 ± 0.2 min⁻¹
